What was measured:
[1] = Determination of fade time T1/2 after isolation from the activating UV light; type: physicochemical; set-up: key: *: Fades too fast to obtain readings; details: chloroform, room temperature (72° F.)
Experimental: (§1) Each of the photochromic compounds (compound P) formed in step 2 of Examples 1-13 and Comparative Example 1 were independently dissolved in separate containers of chloroform. Additionally, a purchased sample of 3,3-diphenyl-naphtho-3H[2,1-b]pyran, identified as Comparative Example 2, was dissolved in a separate container of chloroform.
(§2) Each of the chloroform-dissolved photochromic compounds of Examples 1-13 and Comparative Examples 1-2 were then irradiated with ultraviolet light with a maximum wavelength of 350 nanometers and were measured for maximum absorption wavelength) λmax. The fade time, T1/2 was then determined for each of the irradiated compounds. The fade time for a particular chloroform dissolved photochromic compound is defined as the time interval, at room temperature (72° F.), for the absorbance of the activated form of the chloroform-dissolved photochromic compound to decrease to 1/2 of the maximum absorbance, after the photochromic compound is isolated from the activating source of ultraviolet light. The maximum absorption wavelength and fade time determined for each of the irradiated photochromic compounds of Examples 1-13 and Comparative Examples 1-2 are presented in Table 1: […]

[2] = Determination of maximum absorption wavelength (λmax) after UV irradiation in solution; type: physicochemical; details: for λmax: chloroform, irradiated with ultraviolet light with a maximum wavelength of 350 nanometers
Experimental: as §1, §2

[3] = as above; type: physicochemical; set-up: key: *: Fades too fast to obtain readings; details: cyclohexane
[4] = U.S. Pat. No. 3,567,605 to Becker; cited from earlier work
[5] = Color of the compound or blend when activated by ultraviolet light; type: physicochemical
[6] = absorbance of activated form to decrease to 1/2 of maximum

SMILES | T1/2 (fade time) [1, 6] [s] | λmax [2] [Nanometers] | λmax [3] [Nanometers] | further results
COc1ccc2c3c(ccc2c1)OC(c1ccccc1)(c1ccccc1)C=C3 [Comparative Example 1, 3,3-diphenyl-8-methoxy-3H-naphtho[2,1-b]pyran, reference compound] | 10 | 472 | 451 | 
C1=CC(c2ccccc2)(c2ccccc2)Oc2ccc3ccccc3c21 [Comparative Example 2, 3,3-diphenyl-naphtho-3H[2,1-b]pyran, reference compound] | 13 | 435 | 415 | photochromism [4]: photochromic at room temperature
COc1ccc2c3c(ccc2c1)OC1(C=C3)c2ccccc2-c2ccccc21 [Example 1, 8-methoxyspiro(3H-naphtho [2,1-b]pyran-3,9'-fluorene)] | 20 | 492 | 478 | activated maximum wavelength of absorption ([2]; dissolved in chloroform, irradiated with ultraviolet light): about 492 nanometers; maximum wavelength of activation, compared with Comparative Example 1 ([2]; vs 3,3-diphenyl-8-methoxy-3H-naphtho[2,1-b]pyran): longer maximum wavelength of activation; color when activated by ultraviolet light [5]: deep shade of orange; color of blend with blue-turning photochromic compounds when activated by ultraviolet radiation ([5]; blended with blue-turning photochromic compounds, such as substituted spiroindolino naphthoxazine): desirable, intense shade of gray
COc1ccc2c3c(ccc2c1)OC1(C=C3)CCCc2ccccc21 (stereo not drawn) [Example 2, 8-methoxyspiro(3H-naphtho[2,1-b]pyran-3,1'-tetralone)] | 15 | 474 | 465 | 
COc1ccc2c3c(ccc2c1)OC1(C=C3)CCCc2cc(OC)c(OC)cc21 (stereo not drawn) [Example 3, 6',7'-dimethoxy-8-methoxyspiro(3H-naphtho[2,1-b]pyran-3,1'-tetralone)] |  | 445 |  | T1/2 (fade time) ([1]; symbol, no reading): *; λmax ([3]; symbol, no reading): *
COc1ccc2c3c(ccc2c1)OC1(C=C3)c2ccccc2CC(c2ccccc2)C1c1ccccc1 (stereo not drawn) [Example 5] | 13 | 476 |  | 
COc1ccc2c3c(ccc2c1)OC1(C=C3)c2ccccc2CCC1C (stereo not drawn) [Example 6, 2'-methyl-8-methoxyspiro(3H-naphtho[2,1-b]pyran-3,1'-tetralone)] | 1.2 | 468 |  | 
COc1ccc2c3c(ccc2c1)OC1(C=C3)c2ccccc2CC1C (stereo not drawn) [Example 7, 2'-methyl-8-methoxyspiro(3H-naphtho[2,1-b]pyran-3,1'-indan)] | 396 | 478 |  | 
COc1ccc2c3c(ccc2c1)OC1(C=C3)C(c2ccccc2)=C(c2ccccc2)c2ccccc21 (stereo not drawn) [Example 8, 2',3'-diphenyl-8-methoxyspiro(3H-naphtho[2,1-b]pyran-3,1'-indene)] | 64 | 512 |  | 
C1=CC2(Oc3ccc4ccccc4c31)c1ccccc1-c1ccccc12 [Example 9, spiro(3H-naphtho[2,1-b]pyran-3,9'-fluorene)] | 10 | 445 | 438 | maximum wavelengths of activation, compared with Comparative Example 2 ([2]; vs 3,3-diphenyl-naphtho-3H[2,1-b]pyran): longer maximum wavelengths of activation
CC1CCc2ccccc2C12C=Cc1c(ccc3ccccc13)O2 (stereo not drawn) [Example 11, 2'-methylspiro(3H-naphtho[2,1-b]pyran-3,1'-tetralone)] |  | 444 |  | T1/2 (fade time) ([1]; symbol, no reading): *
C1=CC2(Oc3ccc4ccccc4c31)C(c1ccccc1)=C(c1ccccc1)c1ccccc12 (stereo not drawn) [Example 13] | 35 | 454 |  | 

From patent US5705102A, “Photochromic spironaphthopyran compounds” (Vision-Ease Lens, Inc., priority 1995, dated 1998)
